The source of these data is PMC4527739 (PLoS ONE, 2015).

The target in this assay is T1, yeast channel-forming VDAC isoform (YVDAC1) (Saccharomyces cerevisiae, UniProt P04840).
T1 construct: gene POR1; native protein from detergent (NP-40) extract of mitochondrial fraction; about 30 kDa; identified by LC/MS/MS against SGD ORF translations
T1 sequence (P04840 2-283): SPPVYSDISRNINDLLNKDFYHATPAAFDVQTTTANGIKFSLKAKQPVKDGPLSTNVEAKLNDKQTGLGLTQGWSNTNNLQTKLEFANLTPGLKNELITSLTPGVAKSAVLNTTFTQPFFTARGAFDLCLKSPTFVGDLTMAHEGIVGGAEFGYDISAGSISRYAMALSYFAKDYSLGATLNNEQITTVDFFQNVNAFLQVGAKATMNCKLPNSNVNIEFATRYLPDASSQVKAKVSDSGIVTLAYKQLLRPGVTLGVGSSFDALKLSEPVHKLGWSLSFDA
It is filed as biochemical.

For the compound `COc1cc2c(cc1OC)OC(C)(C)C=C2` [Precocene II], the “affinity magnetic beads, elution and competition with free compound, SDS-PAGE, L” value is “identification of YVDAC1 as the precocene II-binding protein in the yeast S. cerevisiae”.
